pEC50, pIC50: −log10 of the molar value.
Experiments:
[1] = target: T1, PR-B progesterone receptor (Homo sapiens, UniProt P06401); assay: Agonism on the PR-B progesterone receptor (transactivation assay); format: cell-based; conditions: for pEC50: read-out: Agonistic Activity EC50
T1 sequence (P06401 1-933): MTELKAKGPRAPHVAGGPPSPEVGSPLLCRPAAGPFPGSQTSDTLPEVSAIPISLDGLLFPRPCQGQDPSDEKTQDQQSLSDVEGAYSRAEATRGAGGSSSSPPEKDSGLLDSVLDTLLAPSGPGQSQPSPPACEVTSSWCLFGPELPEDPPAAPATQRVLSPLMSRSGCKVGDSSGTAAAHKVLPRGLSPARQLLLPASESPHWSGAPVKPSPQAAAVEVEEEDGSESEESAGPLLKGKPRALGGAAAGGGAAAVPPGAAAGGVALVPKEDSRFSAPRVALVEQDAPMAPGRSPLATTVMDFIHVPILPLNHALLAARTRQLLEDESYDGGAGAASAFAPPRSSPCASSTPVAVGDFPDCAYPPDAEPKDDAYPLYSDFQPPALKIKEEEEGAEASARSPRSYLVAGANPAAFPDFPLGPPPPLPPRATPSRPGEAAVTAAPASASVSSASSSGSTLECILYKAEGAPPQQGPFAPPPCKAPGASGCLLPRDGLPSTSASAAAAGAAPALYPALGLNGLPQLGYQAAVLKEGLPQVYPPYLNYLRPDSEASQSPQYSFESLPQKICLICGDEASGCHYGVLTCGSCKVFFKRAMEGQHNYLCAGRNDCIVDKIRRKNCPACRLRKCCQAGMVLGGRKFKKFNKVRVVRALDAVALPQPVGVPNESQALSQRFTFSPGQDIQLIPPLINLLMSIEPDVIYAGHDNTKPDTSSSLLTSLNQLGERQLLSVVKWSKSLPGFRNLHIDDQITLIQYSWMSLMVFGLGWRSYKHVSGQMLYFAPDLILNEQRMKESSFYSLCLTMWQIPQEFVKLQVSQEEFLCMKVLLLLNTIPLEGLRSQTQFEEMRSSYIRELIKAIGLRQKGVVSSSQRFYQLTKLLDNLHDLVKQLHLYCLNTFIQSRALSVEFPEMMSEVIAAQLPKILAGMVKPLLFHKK
Description: Agonism on the PR-B Progesterone Receptor
The transactivation assay is carried out as described in Fuhrmann et al. (Fuhrmann U., Hess-Stump H., Cleve A., Neef G., Schwede W., Hoffmann J., Fritzemeier K.-H., Chwalisz K., Journal of Medicinal Chem, 43, 26, 2000, 5010-5016).

[2] = target: T1, PR-B progesterone receptor; assay: Antagonism at the PR-B progesterone receptor (transactivation assay); format: cell-based; conditions: for pIC50: read-out: Antagonistic Activity IC50
Description: Antagonism at the PR-B Progesterone Receptor
The transactivation assay is carried out as described in WO 02/054064.

Agonistic Activity Efficacy [1]	pEC50 [1]	Antagonistic Activity Efficacy [2]	pIC50 [2]	Compound
10%	9.70	86%	9.70	Cc1noc(=O)c2ccc(NC(=O)C(O)(C#Cc3ccccc3)CC3(c4ccccc4Cl)CCCC3)cc12 (racemic) [Example 5, rac-6-{2-[(2-Chlorophenyl)cyclopentyl]methyl-2-hydroxy-4-phenylbut-3-ynoylamino}-4-methyl-2,3-benzoxazin-1-one]
35%	8.15	53%	8.22	C#CC(O)(CC(C)(C)c1ccccc1)C(=O)Nc1ccc2c(=O)onc(C)c2c1 (racemic) [Example 14, rac-6-[2-Ethynyl-2-hydroxy-4-methyl-4-phenylpentanoylamino]-4-methyl-2,3-benzoxazin-1-one]
0%	–	100%	8.70	Cc1noc(=O)c2ccc(NC(=O)C(O)(C#Cc3ccccc3C(F)(F)F)CC(C)(C)c3ccccc3)cc12 (racemic) [Example 24, rac-6-[2-Hydroxy-4-methyl-4-phenyl-2-[(2-trifluoromethylphenyl)ethynyl]-pentanoylamino]-4-methyl-2,3-benzoxazin-1-one]
0%	–	100%	8.70	Cc1cc(C)c(C#CC(O)(CC(C)(C)c2ccccc2)C(=O)Nc2ccc3c(=O)onc(C)c3c2)cc1C (racemic) [Example 35, rac-6-[2-[(2,4,5-Trimethylphenyl)ethynyl]-2-hydroxy-4-methyl-4-phenylpentanoylamino]-4-methyl-2,3-benzoxazin-1-one]

Second part, the compound before the results:

Compound	Agonistic Activity Efficacy [1]	pEC50 [1]	Antagonistic Activity Efficacy [2]	pIC50 [2]
Cc1noc(=O)c2ccc(NC(=O)C(O)(C#Cc3ccccc3)CC(C)(C)c3ccccc3)cc12 (racemic) [Example 16, rac-6-[2-Hydroxy-4-methyl-4-phenyl-2-(phenylethynyl)pentanoylamino]-4-methyl-2,3-benzoxazin-1-one]	13%	9.30	82%	9.15
COc1ccc(C#CC(O)(CC(C)(C)c2ccccc2)C(=O)Nc2ccc3c(=O)onc(C)c3c2)cc1 (racemic) [Example 18, rac-6-[2-Hydroxy-2-[(4-methoxyphenyl)ethynyl]-4-methyl-4-phenylpentanoylamino]-4-methyl-2,3-benzoxazin-1-one]	8%	–	89%	9.70
Cc1ccc(C#CC(O)(CC(C)(C)c2ccccc2)C(=O)Nc2ccc3c(=O)onc(C)c3c2)cc1 (single isomer, unassigned; (-)) [Example 17b, (−)-6-[2-Hydroxy-4-methyl-2-[(4-methylphenyl)ethynyl]-4-phenylpentanoylamino]-4-methyl-2,3-benzoxazin-1-one]	7%	–	88%	10.52

Reference: US20070010514A1, “Non-steroidal progesterone receptor modulators” (priority 2005, published 2007)
